Patent US8524755B2 (priority 2009, dated 2013)

Columns and labels:
[1] = target: T1, Endothelin ETA (h) (Homo sapiens, UniProt P25101); assay: Binding ETA (h) (ag); conditions: read-out: % Inhibition of Control Specific Binding @ 10 μM
T1 construct: expressed in transfected cells; host or cells: CHO cells
T1 sequence (P25101 21-427): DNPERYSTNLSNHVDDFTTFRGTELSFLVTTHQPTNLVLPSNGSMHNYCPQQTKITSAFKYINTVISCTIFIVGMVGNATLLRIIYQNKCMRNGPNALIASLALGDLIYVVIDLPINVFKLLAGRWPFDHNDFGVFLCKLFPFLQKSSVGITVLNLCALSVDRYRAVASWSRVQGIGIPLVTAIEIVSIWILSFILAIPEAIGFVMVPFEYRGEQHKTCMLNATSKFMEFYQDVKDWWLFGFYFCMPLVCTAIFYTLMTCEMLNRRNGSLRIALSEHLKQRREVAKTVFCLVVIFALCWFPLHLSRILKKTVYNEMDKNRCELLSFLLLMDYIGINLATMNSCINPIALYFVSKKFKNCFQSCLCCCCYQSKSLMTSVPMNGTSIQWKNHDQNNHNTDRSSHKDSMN
Method: (§1) Radioligand binding assay methods utilized to measure the activity of compounds of the invention will be familiar to those skilled in the art. In each assay case, the assay components such as, for example, the cell-type, ligand, reference compound and the like, will be familiar to practitioners of such an assay.
(§2) Analysis and Expression of Results: Compounds of the invention were tested in the biochemical assays and percent inhibition of specific binding was determined. The specific ligand binding to the receptors is defined as the difference between the total binding and the nonspecific binding determined in the presence of an excess of unlabelled ligand. The results are expressed as a percent inhibition of control specific binding (100−((measured specific binding/control specific binding)×100)) obtained in the presence of test compounds.

[2] = target: T2, Neurokinin NK3 (h) (Homo sapiens, UniProt P29371); assay: Binding NK3 (h) (aa); conditions: read-out: % Inhibition of Control Specific Binding @ 10 μM
T2 construct: expressed in transfected cells; host or cells: CHO cells
T2 sequence (P29371 1-465): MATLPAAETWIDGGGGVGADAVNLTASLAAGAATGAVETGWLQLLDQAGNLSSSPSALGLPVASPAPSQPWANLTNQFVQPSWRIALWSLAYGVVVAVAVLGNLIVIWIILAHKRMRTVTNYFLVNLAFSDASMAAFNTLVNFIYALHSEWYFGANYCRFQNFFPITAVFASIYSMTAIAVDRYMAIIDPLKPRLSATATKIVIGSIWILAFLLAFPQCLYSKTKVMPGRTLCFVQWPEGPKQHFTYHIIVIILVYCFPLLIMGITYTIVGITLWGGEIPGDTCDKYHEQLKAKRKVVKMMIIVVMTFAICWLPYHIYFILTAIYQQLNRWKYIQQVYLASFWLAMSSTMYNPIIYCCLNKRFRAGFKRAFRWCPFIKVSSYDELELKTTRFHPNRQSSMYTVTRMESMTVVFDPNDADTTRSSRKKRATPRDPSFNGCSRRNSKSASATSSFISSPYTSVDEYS
Method: as §1, §2

[3] = target: T3, MAO-B (h) (Homo sapiens, UniProt P27338); assay: Enzyme assay MAO-B (h); format: biochemical; conditions: read-out: % Inhibition of Control Values @ 10 μM
T3 construct: human platelets; from tissue; host or cells: human platelets
T3 sequence (P27338 1-520): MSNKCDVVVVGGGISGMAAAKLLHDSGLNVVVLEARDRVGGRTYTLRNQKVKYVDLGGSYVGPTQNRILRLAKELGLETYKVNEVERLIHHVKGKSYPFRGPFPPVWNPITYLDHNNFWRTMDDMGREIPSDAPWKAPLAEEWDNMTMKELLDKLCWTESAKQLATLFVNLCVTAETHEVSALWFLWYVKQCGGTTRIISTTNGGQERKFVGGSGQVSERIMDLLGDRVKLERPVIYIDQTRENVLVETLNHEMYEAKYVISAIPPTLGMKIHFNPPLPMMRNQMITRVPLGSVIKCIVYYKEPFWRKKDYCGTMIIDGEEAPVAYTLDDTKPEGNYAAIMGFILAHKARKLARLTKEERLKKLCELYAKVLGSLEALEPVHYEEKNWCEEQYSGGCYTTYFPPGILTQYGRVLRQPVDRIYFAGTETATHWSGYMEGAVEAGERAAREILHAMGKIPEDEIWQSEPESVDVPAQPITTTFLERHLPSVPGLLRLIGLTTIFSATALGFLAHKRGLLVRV
Text: The enzyme assays provided below will be familiar to those skilled in the art.
Analysis and Expression of Results: The results are expressed as a percent of control specific activity ((measured specific activity/control specific activity)×100) obtained in the presence of the test compounds.

[4] = target: T4, Endothelin ETB (h) (Homo sapiens, UniProt P24530); assay: Binding ETB (h) (ag); conditions: read-out: % Inhibition of Control Specific Binding @ 10 μM
T4 construct: expressed in transfected cells; host or cells: CHO cells
T4 sequence (P24530 27-442): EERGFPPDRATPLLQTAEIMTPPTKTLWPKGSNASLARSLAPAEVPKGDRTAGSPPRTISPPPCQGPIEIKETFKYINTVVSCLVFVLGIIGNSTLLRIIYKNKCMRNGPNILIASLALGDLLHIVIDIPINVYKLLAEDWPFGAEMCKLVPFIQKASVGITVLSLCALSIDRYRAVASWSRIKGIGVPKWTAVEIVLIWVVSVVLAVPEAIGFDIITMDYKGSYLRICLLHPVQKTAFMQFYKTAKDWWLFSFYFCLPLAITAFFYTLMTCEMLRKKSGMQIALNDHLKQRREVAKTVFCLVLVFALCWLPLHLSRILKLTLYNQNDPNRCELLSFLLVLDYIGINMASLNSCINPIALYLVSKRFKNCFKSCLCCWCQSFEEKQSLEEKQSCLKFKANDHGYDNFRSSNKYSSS
Method: as §1, §2

For `CC1(C)C(=O)N(c2ccc(C#N)c(C(F)(F)F)c2)C(=S)N1c1ccc(C(=O)O)c(F)c1` [(MI), 4-(3-(4-cyano-3-(trifluoromethyl)phenyl)-5,5-dimethyl-4-oxo-2-thioxoimidazolidin-1-yl)-2-fluorobenzoic acid], the inhibition at 10 µM [1] was -21%, the inhibition at 10 µM [2] was -11% and the inhibition at 10 µM [3] was 8%. It also gave an inhibition at 10 µM [4] of -7%.

Work on `CC1(C)C(=O)N(c2ccc(C#N)c(C(F)(F)F)c2)C(=O)N1c1ccc(C(N)=O)c(F)c1` [(MIII), 4-(3-(4-cyano-3-(trifluoromethyl)phenyl)-5,5-dimethyl-2,4-dioxoimidazolidin-1-yl)-2-fluorobenzamide] yielded an inhibition at 10 µM [1] of -12%, an inhibition at 10 µM [2] of -2% and an inhibition at 10 µM [3] of -5%. For the same molecule, the inhibition at 10 µM [4] was 0%.

`CNC(=O)c1ccc(N2C(=O)N(c3ccc(C#N)c(C(F)(F)F)c3)C(=O)C2(C)C)cc1F` [(MIV), 4-(3-(4-cyano-3-(trifluoromethyl)phenyl)-5,5-dimethyl-2,4-dioxoimidazolidin-1-yl)-2-fluoro-N-methylbenzamide] gave an inhibition at 10 µM [1] of -27%, an inhibition at 10 µM [2] of -7% and an inhibition at 10 µM [3] of 11%. For the same molecule, the inhibition at 10 µM [4] was -3%.

Molecule `CC1(C)C(=O)N(c2ccc(C#N)c(C(F)(F)F)c2)C(=S)N1c1ccc(C(N)=O)c(F)c1` [(MII), 4-(3-(4-Cyano-3-(trifluoromethyl)phenyl)-5,5-dimethyl-4-oxo-2-thioxoimidazolidin-1-yl)-2-fluorobenzamide] has an inhibition at 10 µM [1] of -16%, an inhibition at 10 µM [2] of 3% and an inhibition at 10 µM [3] of -4%. The inhibition at 10 µM [4] was -4%.
